According to patent US20140323304A1, “HERBICIDE COMPOSITION AND WEED CONTROL METHOD” (SDS BIOTECH K.K., priority 2008, published 2014):

Experiments:
Assay in all cases: Pot test on the foliar application (post-emergence treatment of weeds)
Format in all cases: in vivo
Settings in all cases: day 10
[1] = test system: Chenopodium album
Experimental: (§1) Field soil was packed in a 350 cm^2 plastic pot and seeds of Echinochloa utilis, Digitaria adscendens, Avena fatua, Amaranthus viridis, Chenopodium album and Ipomoea purpurea were sown and covered with soil of about 1 cm thickness. After water absorption and at day 25 after the seeding, sugi-refined oil diluted with a stock solution or water was sprayed uniformly in a spray volume of 200 ml per 1 m^2. The test was performed in a glass greenhouse at a temperature of from 18 to 30° C., and the soil was appropriately moistened from the bottom side.
(§2) Using each of the oily extracts obtained in Preparation Example 2, a flowable (emulsion) formulation was prepared according to Preparation Example 2. The herbicidal activity in the post-emergence stage was evaluated by the method according to Test Example 3 except that the dilution ratio of the spray solution with water was fixed to 4-fold dilution.
(§3) Using the liquid formulation prepared in Formulation Example 3, the herbicidal activity in the post-emergence stage was evaluated by the method according to Test Example 3 except that the test was conducted under a fixed condition that the solution was used as a stock solution without being diluted with water. Also, a formulation using water as a substitute of an oily extract, i.e. a formulation containing sodium bicarbonate only was prepared for comparison, and its herbicidal effect was evaluated as a comparative example. The formulation was sprayed uniformly in a spray volume of 200 ml per 1 m^2.
as §3, with “4,” for “3,”, “treatment of weeds” for “stage”, “calcium borate” for “sodium bicarbonate”
as §3, with “5,” for “3,”, “treatment of weeds” for “stage”, “d-limonene” for “sodium bicarbonate”
(§4) Using these essential oils, a flowable (emulsion) formulation was prepared according to Formulation Example 2. The herbicidal activity in the post-emergence treatment of weeds was evaluated by the method according to Test Example 3 except that the dilution ratio of the spray solution with water was fixed to 2-fold dilution.

[2] = test system: Ipomoea purpurea
Experimental: as §1, §2, §3
as §3, with “4,” for “3,”, “treatment of weeds” for “stage”, “calcium borate” for “sodium bicarbonate”
as §3, with “5,” for “3,”, “treatment of weeds” for “stage”, “d-limonene” for “sodium bicarbonate”
as §4

[3] = test system: Echinochloa utilis
Experimental: as §1, §2, §3
as §3, with “4,” for “3,”, “treatment of weeds” for “stage”, “calcium borate” for “sodium bicarbonate”
as §3, with “5,” for “3,”, “treatment of weeds” for “stage”, “d-limonene” for “sodium bicarbonate”
as §4

[4] = test system: Digitaria adscendens
Experimental: as §1, §2, §3
as §3, with “4,” for “3,”, “treatment of weeds” for “stage”, “calcium borate” for “sodium bicarbonate”
as §3, with “5,” for “3,”, “treatment of weeds” for “stage”, “d-limonene” for “sodium bicarbonate”
as §4

[5] = test system: Avena fatua
Experimental: as §1, §2, §3
as §3, with “4,” for “3,”, “treatment of weeds” for “stage”, “calcium borate” for “sodium bicarbonate”
as §3, with “5,” for “3,”, “treatment of weeds” for “stage”, “d-limonene” for “sodium bicarbonate”
as §4

[6] = test system: Amaranthus viridis
Experimental: as §1, §2, §3
as §3, with “4,” for “3,”, “treatment of weeds” for “stage”, “calcium borate” for “sodium bicarbonate”
as §3, with “5,” for “3,”, “treatment of weeds” for “stage”, “d-limonene” for “sodium bicarbonate”
as §4

[7] = undiluted liquid formulation 200 ml/m^2, per 1 m^2: 20 ml of the essential oil and 20 ml of d-limonene
[8] = undiluted liquid formulation 200 ml/m^2, per 1 m^2: 20 ml of the essential oil and 12 g of sodium bicarbonate
[9] = undiluted liquid formulation 200 ml/m^2, per 1 m^2: 20 ml of the essential oil and 12 g of calcium borate

Compound: C=C(C)[C@H]1CC=C(C)CC1 [Comparative Example (d-limonene only), d-limonene]
- Herbicidal activity Chenopodium album [1, 7]: 6 (56 to 65%)
- Herbicidal activity Ipomoea purpurea [2, 7]: 4 (36 to 45%)
- Herbicidal activity Echinochloa utilis [3, 7]: 5 (46 to 55%)
- Herbicidal activity Digitaria adscendens [4, 7]: 7 (66 to 75%)
- Herbicidal activity Avena fatua [5, 7]: 5 (46 to 55%)
- Herbicidal activity Amaranthus viridis [6, 7]: 6 (56 to 65%)

Compound: O=C([O-])O.[Na+] [sodium bicarbonate]
- Herbicidal activity Chenopodium album [1, 8]: 4 (36 to 45%)
- Herbicidal activity Ipomoea purpurea [2, 8]: 2 (16 to 25%)
- Herbicidal activity Echinochloa utilis [3, 8]: 3 (26 to 35%)
- Herbicidal activity Digitaria adscendens [4, 8]: 4 (36 to 45%)
- Herbicidal activity Avena fatua [5, 8]: 4 (36 to 45%)
- Herbicidal activity Amaranthus viridis [6, 8]: 3 (26 to 35%)

Compound: calcium borate
- Herbicidal activity Chenopodium album [1, 9]: 4 (36 to 45%)
- Herbicidal activity Ipomoea purpurea [2, 9]: 3 (26 to 35%)
- Herbicidal activity Echinochloa utilis [3, 9]: 4 (36 to 45%)
- Herbicidal activity Digitaria adscendens [4, 9]: 4 (36 to 45%)
- Herbicidal activity Avena fatua [5, 9]: 5 (46 to 55%)
- Herbicidal activity Amaranthus viridis [6, 9]: 4 (36 to 45%)
